According to patent US20250333708A1, “MANIPULATING NEPHRON DIFFERENTIATION RATE IN INDUCED HUMAN PLURIPOTENT STEM CELL ORGANOIDS AND TISSUES BY ENGINEERING MECHANICS OF THE MICROENVIRONMENT” (THE TRUSTEES OF THE UNIVERSITY OF PENNSYLVANIA, priority 2022, published 2025):

Experiments:
[1] = system: day 9 metanephric mesenchyme spheroids (human iPSC-derived nephron progenitors); experiment: Nephron progenitor spheroid differentiation assay (SIX2 / LHX1 immunofluorescence); format: cell-based; settings: 48 hr; for LHX1+ early nephron cells in spheroids, agent combined with CHIR: 3 μM CHIR plus 10 μM Y27632 or 30 μM blebbistatin; for LHX1+ early nephron cells in spheroids (marker positive pixel area as % of projection area): single agent in FGF9 basal media, 3 μM CHIR or 10 μM Y27632
Description: We then decided to mimic the reduction in anisotropic stress that occurs over the tip life-cycle in vivo by adding the ROCK inhibitor Y-27632 or the non-muscle myosin II inhibitor blebbistatin to day 9 metanephric mesenchyme spheroids for 48 hr. These temporal parameters were optimized to capture early transitions of cells through the SIX2+ state and to accumulate differentiation events sparsely, enabling quantification. Spheroids were analyzed by immunofluorescence for SIX2 and the pre-tubular aggregate/renal vesicle (early nephron) marker LHX1 (FIG. 6E). […] These LHX1+ cells clustered and began to express the later medial nephron marker Jag1, indicating appropriate progression of differentiation after perturbation (FIG. 6D).
Nephron progenitor spheroid differentiation assays. Day 9 cap mesenchyme-stage nephron progenitors were lifted with Accutase and re-plated at 50,000 cells per well in 96-well ultra low attachment round-bottom plates (Corning 7007) in Advanced RPMI 1640 Medium, Glutamax, 1× Penn/Strep and 10 ng ml^−1 FGF9 (“basal media”) plus the specified perturbation conditions, which included 3 μM CHIR, 10 μM Y27632 (StemCell Technologies, 72304) from a 10 mM stock in DMSO, and/or 30 μM(S) (S)-(−)-blebbistatin (Tocris, 1852) from a 30 mM stock in DMSO. Cells were then aggregated by plate centrifugation at 300 g for 30 s. After 48 hr in culture, spheroids were collected and transferred to 1.7 mL tubes using a p200 pipette tip widened by cutting the tip to size with a razor blade. Excess media was removed and spheroids were fixed in ice-cold 4% paraformaldehyde in PBS for 15 min. Spheroids were then stained for immunofluorescence microscopy similar to kidneys (see Kidney immunofluorescence imaging.) via primary and secondary antibody incubation for 48 hr each at 4 C and washes in PBSTX totaling 6 hours. Primary antibodies and dilutions included mouse anti-Lhx1 (1:50, 4F2, Developmental Studies Hybridoma Bank, University of Iowa, RRID: AB_531784) and rabbit anti-Six2 (1:600, 11562-1-AP, Proteintech, RRID: AB_2189084). Spheroids were then incubated in 1 μg ml^−1 DAPI in PBS at 4 C for 1 hr before washing once in ice-cold PBS. Spheroids were transferred for imaging using a widened p200 pipette tip to a cover-slip bottom 24-well plate (Greiner 662892). Excess PBS was removed and spheroids were incubated with ˜20 μl of FocusClear (Cedarlane Labs, FC-101) for 20 min at room temperature prior to confocal imaging. Spheroids were imaged using 5 μm z-steps.
Quantification of spheroid cell differentiation. Maximum intensity projections of spheroids were generated and further processed in FIJI. DAPI signal was used to segment spheroids and calculate their areas in number of pixels. SIX2 and LHX1 signal was segmented using 50 pix rolling ball background subtraction and thresholding to remove background signal. The total numbers of SIX2+ and LHX1+ pixels were then divided by the total number of DAPI+ pixels to normalize positive pixels by spheroid area.

[2] = system: day 9 iPSC-derived metanephric mesenchyme; experiment: CHIR effect on day 9 iPSC-derived metanephric mesenchyme (substrate release and compaction); format: cell-based, human; settings: day 9 cells, CHIR pulse; ascribed to collective cell contractility rather than motility
Description: We next turned to a bottom-up approach using human iPSC-derived nephron progenitor organoids to assess the effects of mechanical microenvironment changes on nephron differentiation (FIG. 6B). When differentiated, these roughly mimic the progression in transcriptional states and marker expression profiles of mouse nephron progenitors in vivo, despite some species-specific differences (61-65). To test perturbations to cell collective tension during nephron progenitor commitment, we first differentiated PSCs through late primitive streak and posterior intermediate mesoderm (PIM) lineages to metanephric mesenchyme according to established protocols (66), confirming by qPCR (FIG. 10). We also validated that induced metanephric mesenchyme cells go on to form later nephron structures including ECAD+tubules containing GATA3+ distal nephron cells and Na^+/[…]/2Cl^− cotransporter SLC12A1+ loop of Henle cells after 21 days in culture (FIG. 6C). Day 9 induced metanephric mesenchyme cells were dissociated and plated into low-attachment round-bottom plates where they formed spheroids that we assayed for early nephrogenesis (FIG. 6D). In similar assays, a CHIR pulse is typically applied after re-aggregation of cells to mimic Wnt9b-driven β-catenin signaling during nephron progenitor commitment in vivo (61,62,67,68). […]

[3] = system: Rho-associated protein kinase (ROCK); settings: cited from earlier work

Row | SMILES | LHX1+ early nephron cells in spheroids, agent combined with CHIR [1] | LHX1+ early nephron cells in spheroids (marker positive pixel area as % of projection area) [1] | further results
1 | C[C@@H](N)[C@H]1CC[C@H](C(=O)Nc2ccncc2)CC1 [Y-27632] | synergistic effect | did not by itself induce LHX1+ cells | SIX2+ nephron progenitors in spheroids (marker positive pixel area as % of projection area) ([1]; 10 μM Y27632 in FGF9 basal media, without CHIR): increased cell conversion to and/or self-renewal of SIX2+ progenitors
2 | Cc1c[nH]c(-c2cnc(NCCNc3ccc(C#N)cn3)nc2-c2ccc(Cl)cc2Cl)n1 [CHIR] |  | increased differentiation to the LHX1+ state | Cell release from substrate and compaction [2]: induced cell release from their substrate and compaction
3 | Cc1ccc2c(c1)C(=O)[C@]1(O)CCN(c3ccccc3)C1=N2 [blebbistatin, (S)-(−)-blebbistatin] | synergistic effect |  | 
4 | Cc1cncc2cccc(S(=O)(=O)N3CCCNC[C@@H]3C)c12 [H1152] |  |  | Nephron formation, high dose ([3]; high dose H1152): decreases in nephron formation; Nephron formation, low dose ([3]; low dose H1152): increases in nephron formation
